Patent US10906876B2, “Tetrahydroisoquinolines as selective NADPH oxidase 2 inhibitors” (University of Pittsburgh—Of the Commonwealth System of …, priority 2013, dated 2021)

Target: T1, Nox5 (Homo sapiens, UniProt Q96PH1)
T1 construct: expressed in transfected cells; host or cells: HEK-Nox5 cells (gift of D. Fulton)
T1 sequence (Q96PH1 19-737 isoform Q96PH1-3 limits assumed): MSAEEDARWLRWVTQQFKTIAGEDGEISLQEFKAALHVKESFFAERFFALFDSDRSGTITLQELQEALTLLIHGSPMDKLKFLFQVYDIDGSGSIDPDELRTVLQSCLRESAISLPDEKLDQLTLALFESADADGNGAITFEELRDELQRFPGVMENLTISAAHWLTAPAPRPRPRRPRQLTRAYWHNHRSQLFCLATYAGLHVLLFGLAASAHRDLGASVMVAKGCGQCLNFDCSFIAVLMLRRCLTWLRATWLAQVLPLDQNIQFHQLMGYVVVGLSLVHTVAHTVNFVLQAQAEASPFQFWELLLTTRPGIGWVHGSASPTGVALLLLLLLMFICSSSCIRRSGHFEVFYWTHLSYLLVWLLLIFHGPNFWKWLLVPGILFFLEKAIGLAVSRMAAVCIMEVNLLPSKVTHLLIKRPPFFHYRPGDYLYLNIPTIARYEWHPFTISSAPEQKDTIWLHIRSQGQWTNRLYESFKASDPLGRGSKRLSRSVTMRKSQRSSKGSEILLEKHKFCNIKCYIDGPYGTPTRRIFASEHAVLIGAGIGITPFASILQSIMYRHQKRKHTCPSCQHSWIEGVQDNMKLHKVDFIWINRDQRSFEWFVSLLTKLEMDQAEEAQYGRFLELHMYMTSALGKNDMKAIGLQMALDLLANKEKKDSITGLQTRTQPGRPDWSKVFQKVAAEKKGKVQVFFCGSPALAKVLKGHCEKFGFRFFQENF
Test: Nox5 activity in HEK-Nox5 cells, L-012 assay
Type: cell-based
Details: for IC50: HEK-Nox5 cells stimulated with 1 μM PMA and 0.5 ionomycin, L-012, read-out: IC50 of ROS generation, Nox5 (L-012 assay); for Nox5 inhibitory activity: Table 2
Description: All cell culture reagents were obtained from Invitrogen, unless indicated. COS-22 (COS-7 cells stably expressing human p22^phox) and COS-Nox2 (a.k.a. COS-phox) cells (COS-7 cells stably expressing human p22^phox, Nox2, p47^phox and p67^phox) were kindly provided by Dr. Mary C. Dinauer (Indiana University, School of Medicine) (Price et al., Blood, 2002, 99:2653-2661). COS-22 cells were maintained in Dulbecco's Modified Eagle Medium (DMEM) with 4.5 g/L glucose, L-glutamine and sodium pyruvate containing 10% heat-inactivated fetal bovine serum (FBS), 100 units/ml penicillin and 100 μg/ml streptomycin (complete media) supplemented with 1.8 mg/ml G418 (Calbiochem/EMB Bioscience, Gibbstown, N.J.). COS-Nox2 cells were maintained in complete media supplemented with 1.8 mg/mL G418, 1 μg/mL puromycin (Sigma, St Louis, Mo.) and 0.2 mg/mL hygromycin B (Invitrogen, Carlsbad, Calif.). HEK-Nox5 cells were kindly provided by Dr. David Fulton (Georgia Health Sciences University) and maintained in complete media.
COS-Nox2, COS-Nox1/NOXO1/NOXA1, HEK-Nox5 and COS-22 cells were re-plated in OPTIMEM into 384-well white micro-plates (Greiner-Bio One GmbH, Germany) at a density of 2.5×10^3 cells/well for COS-Nox2 and 5×10^4 cells/well for all others. The cells were incubated at 37° C. in PBS containing 400 μm L-012 for 10 min. […] Since Nox1 was constitutively active, Nox1-derived O2^•− was assessed by comparison to non-transfected cells (Cos22). Luminescence was quantified over time using a Biotek Synergy 4 Hybrid Multi-Mode Microplate Reader. The specificity of L-012 for O2^•− was confirmed by the addition of SOD (150 U/mL).
All data are expressed as means±SEM. IC50 values were determined using the GraphPad Prism software (GraphPad Software, San Diego, Calif.) for non-linear regression three-parameters, with constrain values of 100 and 0 for top and bottom, respectively, and assumes a Hill slope of 1.

SMILES	IC50 [µM]	Nox5 inhibitory activity
C=C(C)CC1NC2CC(C)(C)C1c1c(Br)cccc12 (racemic) [Compound 7, (±)-(1S,4R,9S)-5-Bromo-3,3-dimethyl-9-(2-methylallyl)-1,2,3,4-tetrahydro-1,4-(epimino-methano)-naphthalene]	20 ± 3.1	active
C=C(C)CC1NC2CC(C)(C)C1c1ccccc12 (racemic) [Compound 8, (±)-(1S,4R,9S)-3,3-Dimethyl-9-(2-methylallyl)-1,2,3,4-tetrahydro-1,4-(epiminomethano)-naphthalene]	> 100	inactive
C=C(C)CC1C2c3ccccc3C(CC2(C)C)N1Cc1cccc(F)c1 (racemic) [Compound 11a, (±)-(1S,4R,9S)-10-(3-Fluorobenzyl)-3,3-dimethyl-9-(2-methylallyl)-1,2,3,4-tetrahydro-1,4-(epiminomethano)naphthalene]	50 ± 9	inhibited
C=C(C)CC1C2c3c(Br)cccc3C(CC2(C)C)N1Cc1ccc2c(c1)OCO2 (racemic) [Compound 11d, (±)-(1S,4R,9S)-10-(Benzo[d][1,3]dioxol-5-ylmethyl)-5-bromo-3,3-dimethyl-9-(2-methylallyl)-1,2,3,4-tetrahydro-1,4-(epiminomethano)naphthalene]	> 100	
C=C(C)CC1C2c3c(Br)cccc3C(CC2(C)C)N1CCCCC (racemic) [Compound 11g, (±)-(1S,4R,9S)-5-Bromo-3,3-dimethyl-9-(2-methylallyl-10-pentyl-1,2,3,4-tetrahydro-1,4-(epiminomethano)naphthalene]	> 100	virtually no effect
C=C(C)CC1NC2CC(C)(C)C1c1c(-c3ccc(Cl)c(Cl)c3)cccc12 (racemic) [Compound 12a, (±)-(1S,4R,9S)-5-(3,4-Dichlorophenyl)-3,3-dimethyl-9-(2-methylallyl)-1,2,3,4-tetrahydro-1,4-(epiminomethano)naphthalene]	14 ± 0.6	comparable
C=C(C)CC1C2c3c(-c4ccc(Cl)c(Cl)c4)cccc3C(CC2(C)C)N1Cc1ccc2c(c1)OCO2 (racemic) [Compound 12b, (±)-(1S,4R,9S)-10-(Benzo[d][1,3]dioxol-5-ylmethyl)-5-(3,4-dichlorophenyl)-3,3-dimethyl-9-(2-methylallyl)-1,2,3,4-tetrahydro-1,4-(epiminomethano)-naphthalene]	> 100	
C=C(C)CC1C2c3c(-c4ccc(Cl)c(Cl)c4)cccc3C(CC2(C)C)N1CCCCC (racemic) [Compound 12c]	> 100	
CC(C)CC1NC2CC(C)(C)C1c1c(Br)cccc12 (racemic) [Compound 13]	18 ± 1	retained inhibitory activity
C=C(C)C[C@@H]1N[C@H]2CC(C)(C)[C@@H]1c1c(Br)ccc(Br)c12 [Compound 9]	36	active

Other lines, results leading:

IC50 [µM]	Nox5 inhibitory activity	SMILES
> 100		C=C(C)CC1C2c3c(Br)cccc3C(CC2(C)C)N1Cc1ccnc2ccccc12 (racemic) [Compound 11b, (±)-(1S,4R,9S)-5-Bromo-3,3-dimethyl-9-(2-methylallyl)-10-(quinolin-4-ylmethyl)-1,2,3,4-tetra-hydro-1,4-(epiminomethano)naphthalene]
> 100		C=C(C)CC1C2c3c(Br)cccc3C(CC2(C)C)N1Cc1c[nH]c2ccccc12 (racemic) [Compound 11c, (±)-(1S,4R,9S)-10-((1H-Indol-3-yl)methyl)-5-bromo-3,3-dimethyl-9-(2-methylallyl)-1,2,3,4-tetrahydro-1,4-(epiminomethano)naphthalene]
31 ± 11	inhibited	C=C(C)CC1C2c3c(Br)cccc3C(CC2(C)C)N1Cc1cc(C)on1 (racemic) [Compound 11e, (±)-3-(1S,4R,9S)-5-Bromo-3,3-dimethyl-9-(2-methylallyl)-1,2,3,4-tetrahydro-1,4-(epimino-methano) naphthalen-10-yl)methyl)-5-methylisoxazole]
79 ± 30	inhibited	C=C(C)CC1C2c3c(Br)cccc3C(CC2(C)C)N1Cc1cccc(F)c1 (racemic) [Compound 11f, (±)-(1S,4R,9S)-5-Bromo-10-(3-fluorobenzyl)-3,3-dimethyl-9-(2-methylallyl)-1,2,3,4-tetrahydro-1,4-(epiminomethano)naphthalene]
> 100	virtually no effect	C=C(C)CC1C2c3c(Br)cccc3C(CC2(C)C)N1Cc1cccs1 (racemic) [Compound 11h, (±)-(1S,4R,9S)-5-Bromo-3,3-dimethyl-9-(2-methylallyl)-10-(thiophen-2-ylmethyl)-1,2,3,4-tetrahydro-1,4-(epiminomethano)naphthalene]
> 100		C=C(C)CC1C2c3c(Br)cccc3C(CC2(C)C)N1S(C)(=O)=O (racemic) [Compound 14a, (±)-(1S,4R,9S)-5-Bromo-3,3-dimethyl-9-(2-methylallyl)-10-(methylsulfonyl)-1,2,3,4-tetrahydro-1,4-(epiminomethano)naphthalene]
> 100		C=C(C)CC1C2c3c(Br)cccc3C(CC2(C)C)N1S(=O)(=O)c1ccc(F)cc1 (racemic) [Compound 14b, (±)-(1S,4R,9S)-5-Bromo-10-((4-fluorophenyl)sulfonyl)-3,3-dimethyl-9-(2-methylallyl)-1,2,3,4-tetrahydro-1,4-(epiminomethano)naphthalene]
